In article PMC13128454, “Mutant p53 protein accumulation is selectively targetable by proximity-inducing drugs” (Nature Chemical Biology, 2025):
Where “and” joins values, the source holds several entries; their conditions need not be identical. Equal entries are not always repeated. Where two headings read alike, the source gives them in different places.

Experiments:
Assay type in all cases: cell-based
[1] = test system: Halo–p53-Y220C ΔTAD–mCherry 293T cells; assay: cell-cycle analysis (DNA content, DAPI flow cytometry); set-up: 4N / 8N / Right_of_Gate1 (replicates) / Right_of_Gate2 (replicates) / 2N: unit not given here; conditions: Y220C, 1 day
Protocol: (§1) Cells were split into a 10-cm dish at low confluency (20%) and grown overnight. Cells were synchronized using overnight treatment with palbociclib (150 nM), washed and split into a six-well plate for treatment with compound for 24 h. Cells were harvested by trypsinization, washed twice with cold 1× PBS, fixed by dropwise addition of ice-cold 70% ethanol while vortexing and incubated overnight (4 °C). Fixed samples were centrifuged at 1,000g for 5 min and 70% ethanol was removed. Cells were washed twice with 1× PBS + 1% BSA before DNA labeling with 1 µg ml^−1 DAPI for 10 min at room temperature, before being analyzed for DNA content by flow cytometry (Beckman CytoFLEX LX).

[2] = test system: 293T cells expressing a dox inducible Halo–p53-Y220C ΔTAD–mCherry; assay: viability with doxycycline-inducible construct
Protocol: (§2) Cells were plated in 384-well plates (typically 1,500 cells per well) with varying concentrations of compounds, with a total volume of 50 μl per well. CTG reagent was added (25 μl) to the solutions, mixed and read out using an EnVision 2105 multimode plate reader.

[3] = viability with doxycycline-inducible construct; conditions: human, read-out: mean_norm (normalized viability)
Protocol: as §2

[4] = test system: parental 293T cells; assay: cell-cycle analysis (DNA content, DAPI flow cytometry); conditions: WT, 1 day
Protocol: as §1

[5] = test system: MFE319 cells stably expressing sgTP53–Cas9–EGFP versus parental MFE319 cells; assay: flow-cytometry growth competition
Protocol: (§3) Cells with and without a fluorescent marker (for example, Halo–p53–mCherry) were mixed and the resulting solution was plated in six-well plates or 10-cm dishes at low density; compound was added at varying concentrations. After reaching confluence, cells were passaged and retreated with compound if needed. Otherwise, cells were trypsinized, washed and resuspended in complete growth medium in 96-well plates or tubes for flow cytometry. Untreated cell mixtures were used to establish gates separating the fluorophore^+/− populations. Analysis was conducted on a CytoFLEX LX flow cytometer.

[6] = test system: Halo–p53-Y220C ΔTAD–mCherry 293T cells versus parental 293T cells; assay: flow-cytometry growth competition; conditions: for normalized_mCherry_percentage: Y220C, day 8, normalized to DMSO
Protocol: as §3

[7] = test system: Calu-1 cells stably expressing Halo–p53-R273H (FL)–mCherry versus parental Calu-1 cells; assay: flow-cytometry growth competition; conditions: sheet S2E
Protocol: as §3

[8] = CellTiter-Glo cell viability; conditions: human, p53_construct WT, CTG 4 days, read-out: mean (normalized viability)
Protocol: as §2

[9] = Conc 0.38 (unit not given; p53-01 in μM, BI2536 in nM)
[10] = Conc 0.75 (unit not given; p53-01 in μM, BI2536 in nM)
[11] = Conc 1.50 (unit not given; p53-01 in μM, BI2536 in nM)
[12] = Conc 10.00 (unit not given; per b27 BI2536 in nM)

With `CC[C@@H]1C(=O)N(C)c2cnc(Nc3ccc(C(=O)NC4CCN(C)CC4)cc3OC)nc2N1C1CCCC1` [BI2536] as the compound, how does the 2N [1, 9] read?
Its 2N is 59.64.

And the 4N [1, 9]?
Its 4N is 39.45.

What about the 8N [1, 9] of the same compound?
Its 8N is 0.91.

What about the “Right_of_Gate1 (replicates)” value [1, 9] of the same compound?
Its value is 40.36 and 39.92 and 40.00.

What about the “Right_of_Gate2 (replicates)” value [1, 9] of the same compound?
Its value is 0.91 and 0.89 and 1.00.

And the 2N [1, 10]?
Its 2N is 59.25.

And the 4N [1, 10]?
Its 4N is 40.16.

And the 8N [1, 10]?
Its 8N is 0.59.

And the “Right_of_Gate1 (replicates)” value [1, 10]?
The value was 40.75 and 40.54 and 40.62.

And the “Right_of_Gate2 (replicates)” value [1, 10]?
The value was 0.59 and 0.51 and 0.57.

What about the 2N [1, 11] of the same compound?
Its 2N is 58.82.

What about the 4N [1, 11] of the same compound?
Its 4N is 40.66.

What about the 8N [1, 11] of the same compound?
Its 8N is 0.52.

What about the “Right_of_Gate1 (replicates)” value [1, 11] of the same compound?
Its value is 41.18 and 41.58 and 39.89.

And the “Right_of_Gate2 (replicates)” value [1, 11]?
The value was 0.52 (2×) and 0.50.

And the 2N [1, 12]?
The 2N was 2.81.

And the 4N [1, 12]?
The 4N was 3.65.

What about the 8N [1, 12] of the same compound?
The 8N was 93.54.

What about the “Right_of_Gate1 (replicates)” value [1, 12] of the same compound?
The value was 97.19 and 96.75 and 95.65.

And the “Right_of_Gate2 (replicates)” value [1, 12]?
The value was 93.54 and 93.93 and 86.65.

What about the “change of potency upon doxycycline induction” value ([2]; dox 0, 100, 1000 ng/mL, 4 days) of the same compound?
Its value is “without impacting the potency”.

And the “mean_norm (normalized viability)” value ([2]; dox 0, Concentration 0.0390625)?
Its value is 0.9266.

What about the “mean_norm (normalized viability)” value ([2]; dox 0, Concentration 0.078125) of the same compound?
The value was 0.8991.

And the “mean_norm (normalized viability)” value ([2]; dox 0, Concentration 0.15625)?
The value was 0.8734.

And the “mean_norm (normalized viability)” value ([2]; dox 0, Concentration 0.3125)?
The value was 0.835.

What about the “mean_norm (normalized viability)” value ([2]; dox 0, Concentration 0.625) of the same compound?
Its value is 0.7837.

And the “mean_norm (normalized viability)” value ([2]; dox 0, Concentration 1.25)?
The value was 0.5152.

And the “mean_norm (normalized viability)” value ([2]; dox 0, Concentration 2.5)?
Its value is 0.218.

What about the “mean_norm (normalized viability)” value ([2]; dox 0, Concentration 5) of the same compound?
The value was 0.1689.

And the “mean_norm (normalized viability)” value ([2]; dox 0, Concentration 10)?
The value was 0.1644.

And the “mean_norm (normalized viability)” value ([2]; dox 100, Concentration 0.3125)?
The value was 0.8537.

What about the “mean_norm (normalized viability)” value ([2]; dox 100, Concentration 0.625) of the same compound?
Its value is 0.6735.

What about the “mean_norm (normalized viability)” value ([2]; dox 100, Concentration 1.25) of the same compound?
The value was 0.3823.

What about the “mean_norm (normalized viability)” value ([2]; dox 100, Concentration 2.5) of the same compound?
Its value is 0.2022.

What about the “mean_norm (normalized viability)” value ([2]; dox 100, Concentration 5) of the same compound?
The value was 0.161.

And the “mean_norm (normalized viability)” value ([2]; dox 100, Concentration 10)?
The value was 0.1435.

What about the viability ([3]; dox 100, Concentration 0.0390625) of the same compound?
The viability was 99%.

What about the viability ([3]; dox 100, Concentration 0.078125) of the same compound?
Its viability is 86.5%.

What about the viability ([3]; dox 100, Concentration 0.15625) of the same compound?
Its viability is 88.6%.

And the viability ([3]; dox 1000, Concentration 0.0390625)?
Its viability is 97.3%.

What about the viability ([3]; dox 1000, Concentration 0.078125) of the same compound?
The viability was 89.3%.

And the viability ([3]; dox 1000, Concentration 0.15625)?
The viability was 88.7%.

What about the viability ([3]; dox 1000, Concentration 0.3125) of the same compound?
The viability was 83%.

And the viability ([3]; dox 1000, Concentration 0.625)?
The viability was 74.2%.

What about the viability ([3]; dox 1000, Concentration 1.25) of the same compound?
The viability was 48.7%.

What about the viability ([3]; dox 1000, Concentration 2.5) of the same compound?
Its viability is 18.6%.

What about the viability ([3]; dox 1000, Concentration 5) of the same compound?
Its viability is 14.5%.

And the viability ([3]; dox 1000, Concentration 10)?
Its viability is 10.7%.

What about the 2N [4, 9] of the same compound?
Its 2N is 60.20.

What about the 4N [4, 9] of the same compound?
The 4N was 37.88.

And the “Right_of_Gate1 (replicates)” value [4, 9]?
The value was 39.80 and 40.72 and 40.28.

What about the “Right_of_Gate2 (replicates)” value [4, 9] of the same compound?
Its value is 1.92 and 1.75 and 1.63.

And the 2N [4, 10]?
Its 2N is 60.97.

And the 4N [4, 10]?
Its 4N is 37.16.

What about the “Right_of_Gate1 (replicates)” value [4, 10] of the same compound?
The value was 39.03 and 39.73 and 39.74.

What about the “Right_of_Gate2 (replicates)” value [4, 10] of the same compound?
The value was 1.87 and 1.62 and 1.66.

And the 2N [4, 11]?
Its 2N is 59.07.

What about the 4N [4, 11] of the same compound?
Its 4N is 38.46.

What about the “Right_of_Gate1 (replicates)” value [4, 11] of the same compound?
The value was 40.93 and 41.63 and 42.56.

And the “Right_of_Gate2 (replicates)” value [4, 11]?
The value was 2.47 and 2.39 and 2.53.

And the 2N [4, 12]?
The 2N was 2.57.

What about the 4N [4, 12] of the same compound?
The 4N was 4.74.

What about the “Right_of_Gate1 (replicates)” value [4, 12] of the same compound?
The value was 97.43 and 97.32 and 97.36.

And the “Right_of_Gate2 (replicates)” value [4, 12]?
Its value is 92.69 and 91.65 and 92.21.

What about the “merge_avg (growth competition, sheet 4H)” value ([5]; Concentration (pM) 19.5312) of the same compound?
Its value is 0.9382.

What about the “merge_avg (growth competition, sheet 4H)” value ([5]; Concentration (pM) 78.125) of the same compound?
The value was 0.9005.

And the “merge_avg (growth competition, sheet 4H)” value ([5]; Concentration (pM) 312.5)?
Its value is 0.9194.

What about the “merge_avg (growth competition, sheet 4H)” value ([5]; Concentration (pM) 1250) of the same compound?
Its value is 0.8118.

And the “enrichment of EGFP^+ (TP53-knockout) population” value ([5]; day 9, p53-01 at doses between 800 nM and 1.25 μM)?
Its value is “no such activity”.

What about the “activity / difference in cell survival in competition” value ([6]; 8-day competition) of the same compound?
The value was “did not observe any activity”.

And the normalized_mCherry_percentage ([6]; 0.02 nM)?
The normalized_mCherry_percentage was 98.51%.

What about the normalized_mCherry_percentage ([6]; 0.2 nM) of the same compound?
The normalized_mCherry_percentage was 98.69%.

What about the normalized_mCherry_percentage ([6]; 1 nM) of the same compound?
The normalized_mCherry_percentage was 100.1%.

What about the normalized_mCherry_percentage ([6]; 5 nM) of the same compound?
Its normalized_mCherry_percentage is 117.7%.

And the mCherry_percent ([7]; 0.1 nM)?
The mCherry_percent was 80.66%.

And the mCherry_percent ([7]; 1 nM)?
Its mCherry_percent is 80.59%.

And the mCherry_percent ([7]; 10 nM)?
Its mCherry_percent is 80.93%.

What about the viability at 4 days ([8]; Compound_conc 0.0488281) of the same compound?
Its viability at 4 days is 97%.

What about the viability at 4 days ([8]; Compound_conc 0.0976562) of the same compound?
The viability at 4 days was 111%.

What about the viability at 4 days ([8]; Compound_conc 0.195312) of the same compound?
The viability at 4 days was 98.9%.

And the viability at 4 days ([8]; Compound_conc 0.390625)?
The viability at 4 days was 103%.

What about the viability at 4 days ([8]; Compound_conc 0.78125) of the same compound?
The viability at 4 days was 103%.

What about the viability at 4 days ([8]; Compound_conc 1.5625) of the same compound?
Its viability at 4 days is 105%.

What about the viability at 4 days ([8]; Compound_conc 3.125) of the same compound?
Its viability at 4 days is 101%.

And the viability at 4 days ([8]; Compound_conc 6.25)?
Its viability at 4 days is 80.9%.

And the viability at 4 days ([8]; Compound_conc 12.5)?
The viability at 4 days was 64.4%.

What about the viability at 4 days ([8]; Compound_conc 25) of the same compound?
The viability at 4 days was 62.4%.

And the viability at 4 days ([8]; Compound_conc 50)?
The viability at 4 days was 49.4%.

And the viability at 4 days ([8]; Compound_conc 100)?
The viability at 4 days was 42%.
